Data on five molecules can be found in patent US20250019386A1, “PYRROLO[1,2-b]-2-PYRIDAZINONE COMPOUNDS AS 5-HT4 RECEPTOR AGONISTS” (SUVEN LIFE SCIENCES LIMITED, priority 2022, published 2025).

Data set [1] deals with T1, 5-HT4 receptors (Homo sapiens (Human), UniProt Q13639). The note with it: background statement; cited from earlier work.
In another data set the target is hERG potassium channels (Homo sapiens (Human), UniProt Q12809). The note with it: background statement; cited from earlier work.
For data set [2], the target named is T1, 5-HT4 receptors. The data set is described as follows: Determination of EC50 values for 5-HT4 receptor (pCRE-Luc reporter assay). The data set is classed as cell-based. The note with it: CHO cells expressing recombinant human 5-HT4 receptor and pCRE-Luc reporter; 4 h incubation; luciferase activity. Here is the method:
A stable CHO cell line expressing recombinant human 5-HT4 receptor and pCRE-Luc reporter system was used for cell-based assay. The assay offers a non-radioactive based approach to determine binding of a compound to GPCRs. In this specific assay, the level of intracellular cyclic AMP, which is modulated by activation, or inhibition of the receptor is measured. The recombinant cells harbor luciferase reporter gene under the control of cAMP response element.
The above cells were grown in 96 well clear bottom white plates in Ham's F12 medium containing 10% fetal bovine serum. Prior to the addition of compounds or standard agonist, cells were serum starved overnight. Increasing concentrations of test compounds were added to the cells in OptiMEM medium. The incubation was continued in CO2 incubator at 37° C. with 5% CO2 conditions for 4 h. Medium was removed and cells were washed with phosphate buffered saline. The cells were lysed and luciferase activity was measured in a Luminometer. Concentration-response data was generated using the luciferase assay, following incubation of cells with receptor ligands, were analyzed by subtracting basal levels (i.e. with medium alone), then normalizing values as a percentage of controls (endogenous agonist serotonin (10 μM)). […] EC50 values of the compounds were defined as the concentration required in stimulating the luciferase activity by 50%.

Data set [3] is described as follows: Rat pharmacokinetic study. The data set is classed as in vivo. The note with it: male Wistar rats, plasma; for bioavailability: oral 3 mg/kg vs intravenous 1 mg/kg. Here is the method: Male Wistar rats (250±50 g) were used as experimental animals. Animals were housed individually in polypropylene cages. Two days prior to study, rats were anesthetized with isoflurane for surgical placement of jugular vein catheter. Rats were randomly divided for oral (3 mg/kg and 10 mL/kg as dose volume) and intravenous (1 mg/kg and 2 mL/kg as dose volume) dosing (n=3/group) and fasted overnight before oral dosing (p.o.). However, rats allocated to intravenous dosing food and water was provided ad libitum.
Intravenous formulation was prepared by using water for injection as vehicle. For Oral, formulation was prepared by using reagent grade water as vehicle. The dose formulations were prepared freshly on the day of dosing.
After dosing of animal, each time point a 200 μL of blood sample was collected through jugular vein and replenished with an equivalent volume of normal saline. The collected blood sample was transferred into a labeled eppendorf tube containing 10 μL of sodium heparin (1000 IU/mL) as an anticoagulant. Typically blood samples were collected at following time points: 0.08, 0.25, 0.5, 1, 2, 4, 6, 8, and 24 h post dose. Blood was centrifuged at 4000 rpm for 10 min. Plasma was separated and stored frozen at −80° C. until analysis. The concentrations of the test compounds were quantified in plasma by qualified LC-MS/MS method using a suitable extraction technique. The test compounds were quantified in the calibration range around 1-2000 ng/mL in plasma. Study samples were analyzed using calibration samples in the batch and quality control samples spread across the batch.
Pharmacokinetic parameters Cmax, AUCt, t1/2 and bioavailability were calculated by non-compartmental model using standard non-compartmental model by using Phoenix WinNonlin 6.4 version Software.

Data set [4] is described as follows: Rat brain penetration study. The data set is classed as in vivo. To be noted: brain/plasma, oral (gavage) 3 mg/kg, male Wistar rats, brain concentrations below LLOQ taken as zero, read-out: Single dose Brain Penetration (Cb/Cp). Here is the method:
Male Wistar rats (225±25 g) were used as experimental animals. Three animals were housed in each cage. Animals were given water and food ad libitum throughout the experiment and maintained on a 12 h light/dark cycle.
Brain penetration was determined in discrete manner in rats. One day prior to dosing day, male Wistar rats were acclimatized. After acclimatization, the rats were grouped according to their weight. In each group, 3 animals were kept in individual cages and allowed free access to food and water. At each time point (0.5, 1, and 2 h) n=3 animals were used.
The compounds of formula (I) were suitably preformulated and administered orally at (free base equivalent) 3 mg/kg. Blood samples were collected via, cardiac puncture by using isoflurane anesthesia. The animals were sacrificed to collect brain tissue. Plasma was separated and brain samples were homogenized and stored frozen at −20° C. until analysis.
The concentrations of the compounds of formula (I) were quantified in plasma and brain homogenate by qualified LC-MS/MS method using a suitable extraction technique. The compounds of formula (I) were quantified in the calibration range of 1-2000 ng/mL in plasma and brain homogenate. Study samples were analyzed using calibration samples in the batch and quality control samples spread across the batch. Extent of brain-plasma ratio was calculated (Cb/Cp). Brain concentrations were found below LLOQ and a value of zero was considered for calculation purposes.

Another data set has as its system gastric emptying. The data set is described as follows: Effect on gastric emptying in Beagle dogs (clonidine model of gastroparesis). To be noted: 10 mg/kg oral, clonidine-treated beagle dogs. The data set is classed as in vivo. The method, then:
Six beagle dogs were used for the study in a crossover manner such that all 6 dogs received all the treatments. Each dog was placed in an individual cage after overnight fasting and water removed. To provide a model of gastroparesis, clonidine (α2 adrenergic agonist) at a dose of 10 μg/kg was injected subcutaneously 30 min before test meal administration.
Dogs were orally administered test compound of example 2 at 1, 3 and 10 mg/kg or vehicle or cisapride at 10 mg/kg immediately before the administration of clonidine. The test meal (10 mL/kg), made up of commercially available semi-solid food with 10 mg/kg of acetaminophen (APAP), was provided 30 min after clonidine injection. Blood samples were collected from cephalic vein at 0, 0.25, 0.5, 0.75, 1.0, 1.25, 1.5 & 2.0 h after test meal administration and then plasma was separated by centrifugation. Plasma concentrations of APAP were determined by in-house methods using LC-MS/MS.

The structures appear in SMILES notation.

T1 sequence (Q13639 whole entry): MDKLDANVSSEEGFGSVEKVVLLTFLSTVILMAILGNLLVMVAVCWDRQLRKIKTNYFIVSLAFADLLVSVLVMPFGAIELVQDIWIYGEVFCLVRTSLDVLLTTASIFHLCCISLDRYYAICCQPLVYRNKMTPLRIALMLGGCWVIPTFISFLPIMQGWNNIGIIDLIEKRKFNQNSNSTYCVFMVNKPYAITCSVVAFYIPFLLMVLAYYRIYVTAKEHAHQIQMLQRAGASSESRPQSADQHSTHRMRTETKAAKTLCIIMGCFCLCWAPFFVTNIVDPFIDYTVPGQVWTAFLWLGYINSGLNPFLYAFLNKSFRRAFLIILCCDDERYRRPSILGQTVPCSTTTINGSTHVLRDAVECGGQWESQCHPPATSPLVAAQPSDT
Sequence of hERG potassium channels (Q12809 whole entry): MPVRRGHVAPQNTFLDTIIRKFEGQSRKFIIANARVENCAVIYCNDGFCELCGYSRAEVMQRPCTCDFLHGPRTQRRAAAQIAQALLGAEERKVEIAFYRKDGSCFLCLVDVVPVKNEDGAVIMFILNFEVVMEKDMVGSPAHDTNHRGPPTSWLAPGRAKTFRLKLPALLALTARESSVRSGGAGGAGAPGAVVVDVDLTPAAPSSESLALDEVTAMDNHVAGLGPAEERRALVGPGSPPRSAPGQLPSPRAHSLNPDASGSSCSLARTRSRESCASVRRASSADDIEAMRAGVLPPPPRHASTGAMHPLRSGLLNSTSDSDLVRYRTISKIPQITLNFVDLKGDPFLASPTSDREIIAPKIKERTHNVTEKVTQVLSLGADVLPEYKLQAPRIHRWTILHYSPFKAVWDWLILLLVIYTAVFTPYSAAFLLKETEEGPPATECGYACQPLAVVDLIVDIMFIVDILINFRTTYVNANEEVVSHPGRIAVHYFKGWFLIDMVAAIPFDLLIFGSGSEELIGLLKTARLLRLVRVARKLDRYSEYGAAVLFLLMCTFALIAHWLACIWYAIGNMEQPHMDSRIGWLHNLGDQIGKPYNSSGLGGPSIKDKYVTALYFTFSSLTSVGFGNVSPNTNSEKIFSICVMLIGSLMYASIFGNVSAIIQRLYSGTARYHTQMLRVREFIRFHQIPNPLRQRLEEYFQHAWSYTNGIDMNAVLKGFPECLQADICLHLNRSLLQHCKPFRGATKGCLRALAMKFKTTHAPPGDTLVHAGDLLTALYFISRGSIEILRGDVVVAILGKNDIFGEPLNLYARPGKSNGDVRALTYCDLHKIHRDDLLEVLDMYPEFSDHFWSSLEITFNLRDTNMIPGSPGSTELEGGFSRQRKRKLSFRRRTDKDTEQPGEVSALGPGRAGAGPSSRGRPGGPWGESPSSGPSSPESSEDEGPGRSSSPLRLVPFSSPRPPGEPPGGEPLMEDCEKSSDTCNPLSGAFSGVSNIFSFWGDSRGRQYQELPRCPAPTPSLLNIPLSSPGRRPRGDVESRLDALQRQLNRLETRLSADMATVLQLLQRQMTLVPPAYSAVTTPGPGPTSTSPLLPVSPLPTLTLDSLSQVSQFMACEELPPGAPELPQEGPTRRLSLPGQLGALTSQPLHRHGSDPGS

With `[H]/N=C(/NCCCCC)N/N=C/c1c[nH]c2ccc(OC)cc12` [tegaserod], the “selectivity for 5-HT4 receptors” value on 5-HT4 receptors [1] was “poor selectivity”. In addition, on hERG potassium channels, the “interaction with hERG potassium channels” value is “potent interaction”.
For `CC(C)n1c(=O)c(C(=O)NC2CC3CCC(C2)N3CCNS(C)(=O)=O)cc2cccn21.O=C(O)C(O)C(O)C(=O)O` [Example 28, N-{8-[2-Methanesulfonylaminoethyl]-8-azabicyclo[3.2.1]oct-3-yl} [1-isopropyl-2-oxo-1,2-dihydro pyrrolo[1,2-b]pyridazin]-3-carboxamide L-(+)-tartrate], the EC50 at 5-HT4 receptors [2] came to 12 nM. In data set [3] (intravenous (bolus), 1 mg/kg), this molecule gave an exposure AUC(0-t) of 146 ± 39 ng·h/mL and a half-life of 1.3 ± 0.2 h. Moreover, in data set [3] (oral (gavage), 3 mg/kg), the AUC(0-t) was found to be 189 ± 26 ng·h/mL and the highest level (Cmax) was 83 ± 51 ng/mL. The bioavailability in data set [3] stood at 43 ± 6%. In addition, the Kp in data set [4] was found to be 0.
For `COc1cc(N)c(Cl)cc1C(=O)NC1CCN(CCCOc2ccc(F)cc2)CC1OC` (centres unmarked) [cisapride], the “speed of gastric emptying” value in the data set on gastric emptying was “restored speed of gastric emptying”. The “selectivity for 5-HT4 receptors” value at 5-HT4 receptors [1] is “poor selectivity”. Also, at hERG potassium channels, the “interaction with hERG potassium channels” value is “potent interaction”.
As to `CC(C)n1c(=O)c(C(=O)NC2CC3CCC(C2)N3C[C@H](O)CN(C)S(C)(=O)=O)cc2cccn21.O=C(O)C(O)C(O)C(=O)O` (single isomer, unassigned) [Example 4], on 5-HT4 receptors [2], the EC50 stood at 10 nM. Besides, in data set [3] (intravenous (bolus), 1 mg/kg), the AUC(0-t) turned out to be 124 ± 7.9 ng·h/mL and the half-life was 1.7 ± 0.3 h. In data set [3] (oral (gavage), 3 mg/kg), this molecule showed an area under the curve AUC(0-t) of 44 ± 22 ng·h/mL and a Cmax of 11 ± 6.6 ng/mL. The same molecule had a bioavailability in data set [3] of 12 ± 5.9%. Also, in data set [4], the Kp worked out at 0.
Consider `COC(=O)NCCCN1C2CCC1CC(NC(=O)c1cc3cccn3n(C(C)C)c1=O)C2.O=C(O)C(O)C(O)C(=O)O` [Example 34, N-{8-[3-Carbomethoxyaminopropyl]-8-azabicyclo[3.2.1]oct-3-yl} [1-isopropyl-2-oxo-1,2-dihydro pyrrolo[1,2-b]pyridazin]-3-carboxamide L-(+)-tartrate], for which the EC50 on 5-HT4 receptors [2] was 18 nM. In data set [3] (intravenous (bolus), 1 mg/kg), this molecule had an AUC(0-t) of 119 ± 16 ng·h/mL and a half-life of 1.3 ± 0.3 h. For the same molecule, in data set [3] (oral (gavage), 3 mg/kg), the exposure AUC(0-t) was determined as 274 ± 74 ng·h/mL and the highest level (Cmax) was 174 ± 49 ng/mL. In data set [3], this molecule registered a bioavailability of 77 ± 21%. In addition, the Kp in data set [4] worked out at 0.
